# Measurements published in patent publication EP4796125A1, “TREATMENT OF PATIENT WITH NEGATIVE P53 GENE MUTATION, POSITIVE KRAS GENE MUTATION AND POSITIVE BRCA MUTATION” (Ascentawits Pharmaceuticals, Ltd., priority 2023, dated 2025).
# What was measured:
# [1] = tested on: H460 WT (H460 wild-type cells); assay: In vitro proliferation under normoxia (CTG, 72 hours), Example 26; assay type: cell-based; conditions: Homo sapiens, NCI-H460, Table 21, AST-3424 alone or + 3 µM AST-3021
# Method: • 1) H460 cell suspension was added to a 96-well plate (100 µL per well), with a cell density of 2000 cells/well. • 2) The cells were cultured overnight in a 37°C, 5% CO2 incubator. • 3) Compound Treatment
# Monotherapy: 24 hours after cell plating, each well was supplemented with 99.5 µL of growth medium. Then, 0.5 µL of test compounds at different concentrations was added. The plate was gently shaken to ensure even mixing, and then placed in a 37°C, 5% CO2 incubator.
# Combination therapy: 24 hours after cell plating, each well was supplemented with 99 µL of growth medium. Then, 0.5 µL of the combination compound Nutlin-3 was added. The plate was gently shaken to ensure even mixing, and then placed in an incubator for 2 hours. Then, 0.5 µL of test compounds at different concentrations was added. […]
# [2] = tested on: cell lines and mouse tumor models of KRAS pathogenic mutations; conditions: in vitro and in vivo pharmacodynamic experiments; data of WO2023046060A1; cited from earlier work
smiles,measurement,setting,value
C[C@H](OP(=O)(N1CC1)N1CC1)c1ccc([N+](=O)[O-])c(Oc2cccc(C(=O)N(C)C)c2)c1 [AST-3424],IC50,[1],0.23 nM
same,sensitivity of cell lines and mouse tumor models of KRAS pathogenic mutations,[2],more sensitive
